# “Also recorded” adds a separate entry of the source.
# Tests used:
# [1] = test system: L3.6 pancreatic cells; type: in vivo; conditions: taxol 3 mg/ml, C6-ceramide 10 mg/ml, i.p. 3×/wk, vs control
# Experimental: Treatment was started 4 days after L3.6 cell injection with thrice weekly (3×/wk) intraperitoneal (i.p.) injections of paclitaxel 3.0 mg/ml with or without C6-ceramide (10 mg/ml) for 2 weeks. Mouse survival (FIGS. 2A and 2C), tumor volume (in cm^3; FIG. 2B), mouse body weight (in grams) were recorded (FIG. 2E). The average rate of tumor development was calculated by total tumor volume dividing by total number of days monitored (FIG. 2C).
# SCID/Beige/Taconic nude male mice (22-25 g; 6-8 weeks old) were ear tagged and randomized into 4 different groups (Control, Ceramide, gemcitabine, Ceramide+gemcitabine) combining 5 mice each prior to inoculation subcutaneous (s.c.) with 2×10^6 L3.6 cells in a 0.1 ml volume into the internal surface of the right thigh. Treatment was started 4 days after L3.6 cell injection with thrice weekly (3×/wk) intraperitoneal (i.p.) injections of gemcitabine (two doses: 5.0 and 10.0 mg/ml) with or without C6-ceramide (10 mg/ml) for 2 weeks. Mouse survival (FIGS. 3A, 3B, and 3E) and tumor volume (in cm^3; FIGS. 3C and 3D) were recorded (FIG. 3E). Pancreatic cancer cell lines, including L3.6 cells (FIG. 3F), Panc-1 cells (FIG. 3G) and MIA-PaCa2 cells (MIA, FIG. 3H) were cultured in basic DMEM medium and were treated with gemcitabine (Gem, 1 μg/ml). Mitomycin C was always present in the media to prevent cell proliferation from occurring.
# SCID/Beige/Taconic male mice were inoculated with 2×10^6 L3.6 pancreatic cells and treated […] 4 days post tumor implant with thrice weekly (3×/wk) intraperitoneal (I.P.) injections of paclitaxel (taxol) 3.0 mg/ml or gemcitabine (Gem) 10 mg/ml after treatment and were autopsied when near death (as per IRB committee). Mouse survival, tumor volume (in cm^3), and body weight (in grams) were recorded. Average rate of tumor development was calculated by dividing total tumor volume by total number of days monitored.
# The possible combination effect of C6-ceramide on gemcitabine-induced cytotoxicity (in vitro) and regression (in vivo) of the L3.6 pancreatic cancer cell was also tested according to the methods described in Examples 2 and 3.
# [2] = test system: AKT/mTORC1; assay: Western Blot of AKT/mTORC1 activation in L3.6 cells; type: cell-based; conditions: for PI3K/AKT/mTOR activation: Taxol alone
# Experimental: (§1) Pancreatic cancer cell lines L3.6 cells were left untreated or treated with gemcitabine (Gem, 1 μg/ml) or taxol (1.5 μg/ml) in the presence or absence of C6-ceramide (10 μg/ml) for 2, 4 and 6 hours, AKT/mTORC1 and ERK activation were detected by Western Blot using indicated antibodies (FIGS. 5A and 5C). p-AKT (S473) and p-ERK at 4 hour time intervals for each treatment quantified (FIGS. 5B and 5D). L3.6 cells were pretreated with various inhibitors including PI3K/AKT inhibitor LY 294002 (LY, 1 μM), mTORC1 inhibitor rapamycin (100 nM), MEK/ERK inhibitor U0126 (1 μg/ml) or gemcitabine (1 μg/ml) for 48 hours, cell death was detected 48 hours later (FIG. 5E).
# (§2) As described in Cao et al. (2009) Sci. Signal, 2:RA17, aliquots of 30-40 μg of protein from each sample (treated as indicated in the legends) were separated by 10% SDS-polyacrylamide gel electrophoresis (SDS-PAGE) and transferred onto a polyvinylidene difluoride (PVDF) membrane (Millipore, Bedford, Mass.). After blocking with 10% instant nonfat dry milk for 1 hour, membranes were incubated with specific antibodies overnight at 4° C. followed by incubation with secondary antibodies (HRP-conjugated anti-rabbit or anti-mouse IgG at the appropriate dilutions) for 60 minutes to 1 hour at room temperature. Antibody binding was detected with the enhanced chemiluminescence (ECL) detection system (Amersham Biosciences, Piscataway, N.J.).
# [3] = test system: ERK; assay: Western Blot of ERK activation in L3.6 cells; type: cell-based
# Experimental: as §1, §2
# [4] = test system: AMPK/ACC; assay: AMPK/ACC signaling in L3.6 cell line; type: cell-based; conditions: for AMPK activation: taxol alone
# Source text: The molecular mechanism involved in C6-ceramide induced chemosensitization effects was examined by focusing on taxol.
# To further confirm the requirement of AMPK activation in this synergistic effect, siRNA directed against AMPK can be used.
SMILES,mouse survival [1],tumor volume [1],effect on taxol induced pro-survival PI3K/AKT/mTOR pathway ([2]; C6-ceramide added to taxol),"ERK activation / signaling ([3]; L3.6 cells, Western Blot)","effect on Taxol induced AMPK/ACC signaling (phosphorylation) ([4]; C6-ceramide added to taxol, L3.6 cell line)",PI3K/AKT/mTOR activation [2],PI3K/AKT/mTOR activation ([2]; listed as Taxol),effect on C6-ceramide induced AKT de-phosphorylation or inhibition ([2]; added to C6-ceramide),effect on C6-ceramide inhibition of ERK activation ([3]; added to C6-ceramide),AMPK activation ([4]; listed as Taxol),AMPK activation ([4]; listed as taxol)
"CCCCCCCCCCCCC/C=C/[C@@H](O)[C@H](CO)NC(=O)CCCCC [C6-ceramide, N-hexanoyl-D-sphingosine]",minimal effects,minimal effects,dramatically reduces,induced moderate survival of AKT/mTORC1 and ERK activation; also recorded: inhibited,enhancing; also recorded: dramatically enhances,,,,,,
CC(=O)O[C@H]1C(=O)[C@@]2(C)[C@H]([C@H](OC(=O)c3ccccc3)[C@]3(O)C[C@H](OC(=O)[C@H](O)[C@@H](NC(=O)c4ccccc4)c4ccccc4)C(C)=C1C3(C)C)[C@]1(OC(C)=O)CO[C@@H]1C[C@@H]2O [paclitaxel],minimal effects,minimal effects,,,,no effect,strongly induce,dramatically enhanced,enhanced,strongly induce,moderate AMPK activation

# From US9974760B2, “Compositions and methods for treating cancer” (Chemo-Enhanced LLC, priority 2011, dated 2018)
